Target: T1, leukotriene receptor (Cavia porcellus, UniProt Q2NNR5)
T1 construct: Two pairs of lungs (1.3 g) from freshly sacrificed 300 g male guinea pigs; tissue Kuiper Rabbit Farm, Gary, Ind; (animals); host or cells: guinea pig lung, crude membranes
T1 sequence (Q2NNR5 1-340): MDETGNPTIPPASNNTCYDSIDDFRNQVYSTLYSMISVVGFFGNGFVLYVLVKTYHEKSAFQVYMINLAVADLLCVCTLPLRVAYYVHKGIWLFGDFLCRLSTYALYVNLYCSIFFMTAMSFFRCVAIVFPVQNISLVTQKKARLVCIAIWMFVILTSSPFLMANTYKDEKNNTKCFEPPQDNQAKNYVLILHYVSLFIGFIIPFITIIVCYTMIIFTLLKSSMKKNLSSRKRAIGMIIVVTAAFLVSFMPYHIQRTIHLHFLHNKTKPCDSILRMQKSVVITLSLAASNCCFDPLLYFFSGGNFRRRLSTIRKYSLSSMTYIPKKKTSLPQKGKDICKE
Test: Binding of 3H-Leukotriene D4 to Guinea Pig Lung Membranes (RBL)
Details: 1.00 E -4 M
Method: Additionally, the activity, of the compounds having the Formula I of the present invention is determined by the well known leukotriene receptor binding assay that is described by R. F. Bruns, W. J. Thomsen and T. A. Pugsley in Life Sciences, 33, 645 (1983) or the Herxheimer in vivo antiallergy test described in H. Herxheimer, J. Physiol. (London), Vol. 177, p. 251 (1952).
[14,15-^3 H]leukotriene D4 (^3 H-LTD4) (25 Ci/mmol and 40 Ci/mmol) is purchased from New England Nuclear. Unlabeled LTC4 is a gift of Ono Pharmaceuticals (Japan). LTC4, LTD4, and LTE4 are purchased as methyl esters from Paesel GmbH (Frankfurt, W. Germany). Concentrations of the Paesel leukotrienes are calculated from their absorbance at 280 nm. Leukotriene esters are saponified overnight under N2 in 3.3% potassium carbonate at room temperature. Tritiated leukotrienes are stored as received from New England Nuclear at -20° C. Ono LTC4 (5 μg/ml) is stored at -60° C. in phosphate buffer pH - 6.8. Saponified Paesel leukotrienes are stored at -60° C. in 3.3% potassium carbonate (pH 9.0-9.5). Aliquots of leukotrienes are taken from stock solutions immediately after thawing, after which the stock solutions are immediately refrozen. 2-Amino-2-(hydroxymethyl)-1,3-propanediol (Tris) is Sigma pH 7.7 pre-set crystals, and dimethylsulfoxide is Aldrich Gold Label. Preparation of crude lung membranes
Two pairs of lungs (1.3 g) from freshly sacrificed 300 g male guinea pigs (older animals gave substantially lower binding) from Kuiper Rabbit Farm, Gary, Ind. are disrupted with a Polytron PT 10 (setting 4) for 30 seconds in 20 ml ice-cold 50 mM Tris adjusted with HCl to pH 7.7 at 25° C. (Tris buffer), filtered through a single layer of gauze to remove connective tissue, and centrifuged at 50,000 xg for ten min. The pellet is resuspended by homogenization with a Polytron in 20 ml Tris buffer, centrifuged at 50,000 xg for ten min., resuspended, incubated at 37° C. for 30 minutes, and centrifuged again. The final pellet is resuspended in Tris buffer and either used fresh or stored at -70° C.
All incubations are in triplicate for 60 minutes at 25° C. in 12×75 mm polystyrene tubes containing 1 ml Tris buffer with 20 mg original tissue wet weight of guinea pig lung membranes, 0.2 nM ^3 H-LTD4 (6,000-11,000 cpm), 10 mM MgCl2, and 1% dimethylsulfoxide. Leukotrienes are diluted in Tris buffer. All other test compounds dissolved at 10 mM in dimethylsulfoxide on the same day as the experiment, and diluted in dimethylsulfoxide to 100× the final incubation concentration. Control incubations receive an equal volume (10 μl) of dimethylsulfoxide; the resulting concentration of dimethylsulfoxide had no effect on binding. ^3 H-LTD4 is diluted to 2 nM in Tris buffer. The membrane suspension (20 mg/0.89 ml) contains sufficient MgCl2 to give 10 mM final concentration in the incubation. […] All additions are performed at 0° C. Immediately after the last addition, the incubation is initiated by agitating the rack of tubes on a vortex mixer and warming to 25° C. in a water bath. Tubes are vortexed at least once more during the incubation to ensure that the membranes remained suspended. Incubations are terminated after 60 minutes by filtering under reduced pressure through 25 mm Whatman GF/B filters followed by rapid washing three times with 4 ml of ice-cold Tris buffer. Filters are added to scintillation vials with 8 ml Formula 947 (New England Nuclear), left overnight, shaken, and the radioactivity counted in a scintillation counter (efficiency 40%). Nonspecific binding, defined as binding of ^3 H-LTD4 in the presence of 100 nM LTC4, is 300-500 cpm for all lots of ^3 H-LTD4. Binding to the filters in the absence of tissue is about 100 cpm, and is not affected by unlabeled LTC4. Specific binding, defined as total binding minus nonspecific binding, varied considerably from lot to lot of ^3 H-LTD4. […]

| Compound | RBL, % Inhibition |
| --- | --- |
| O=C(Nc1ccc(CCc2ccc(Cl)c(Cl)c2)cc1)C(=O)c1sc2ccccc2c1O [Example 136, Benzo[b]thiophene-2-acetamide, N-[4-[2-(3,4-dichlorophenyl)ethyl]phenyl]-3-hydroxy-α-oxo] | 11.0% |
| COc1c(C(=O)Nc2ccc(CCc3ccc(Cl)c(Cl)c3)cc2)sc2ccccc12 [Example 147, Benzo[b]thiophene-2-carboxamide, N-[4-[2-(3,4-dichlorophenyl)ethyl]phenyl]-3-methoxy] | 3.0% |

Source: US4921871A, “Enolamides, pharmaceutical compositions and methods of use thereof for treating inflammation” (Warner-Lambert Company, priority 1987, dated 1990)
